Consider one compound from US20190183812A1, “Compounds For The Treatment Of Neuromuscular Disorders” (NMD PHARMA A/S, priority 2017, published 2019).

Broadly, the Kd is a measure of binding affinity in units of concentration.

In experiment [1] the test system is rats. Nature of the experiment: Rotarod running performance of rats after I.P. tubocurarine (myasthenia like phenotype). It is filed as in vivo, rat. As to conditions: 20 mg/kg I.P., 2 hrs before tubocurarine 0.13 mg/kg. The method, then:
FIGS. 9A-9B. […] FIG. 9A illustrates the design of the experiments. Prior to Day One the animals had been familiarized to the rotarod in three training sessions distributed over two days.
(§1) In both series of experiments, running performance was tested on a rotarod using a protocol where the rod was accelerated gradually over a 5 min period, and the running time and covered distance before falling off the rod were measured. […] Experiments with tubocurarine were carried out over two days, and on each day the effect of tubocurarine on running performance was tested. On the first day only tubocurarine was injected. […] On the second day, the animals were first allowed to run on the rotarod, and all animals performed normally. […] The allocation of the animals into the two groups (C8 or sham) was random and unknown to the experimenter (blinded experimental design).
In the first series of in vivo experiments, myasthenia gravis was simply mimicked by I.P. injection of tubocurarine (0.13 mg/kg) in animals that had been familiarized to running on the rotarod. On the first of two consecutive days, tubocurarine was injected I.P. and the running performance of the animal was tested 21 minutes after this injection. On the second day of experimentation, the animals first performed a test run to ensure that they were no longer affected by the tubocurarine injected the day before. […]
In general terms: Falling from the rotarod earlier than controls is read as motor impairment.

Experiment [2] deals with rat soleus muscles. The experiment can be described thus: Mg2+ concentration required to depress nerve-stimulated force by 50% (Kd,Mg2+), combination with 3,4-AP. The method, then:
FIGS. 6A-6E. […] Muscles from 4-week-old rats were stimulated to contract by activating the motor nerve with short duration pulses in field stimulation. Muscles contracted every 10 min for 2 s in response to 30 Hz stimulation. Four different experimental conditions were used. […] C) similar to A) but this muscle had been pre-incubated with 3,4-AP. […] The force integral (AUC) was determined at each extracellular Mg^2+ concentration. AUC was plotted against Mg^2+ concentration and the data was fitted to a sigmoidal function. This provided the extracellular Mg^2+ concentration that was required to reduce the nerve-stimulated force to 50% (Mg50) under the four different conditions (see Table 5).
While the use of tubocurarine mimics conditions with reduced neuromuscular transmission due to post-synaptic dysfunction (myasthenia gravis, neuromuscular blockade), the experiments with elevated extracellular Mg^2+ mimics conditions with pre-synaptic dysfunction akin to a range of neuromuscular disorders including Lambert Eaton syndrome, motor neuron disorders and polyneuropathy. Patients with Lambert Eaton syndrome are commonly treated with inhibitors of voltage gated K^+ channels such as 3,4-diaminopyridine (3,4-AP). Based on this it was determined whether recovery of nerve-stimulated force at elevated extracellular Mg^2+ with CIC-1 inhibiting compounds could be added to force recovery with 3,4-AP. […] FIG. 6A-D show recordings of nerve-stimulated force production at different Mg^2+ concentrations when tested under these four experimental conditions. […] To quantify the effect of compounds on Mg^2+ sensitivity the force at the different Mg^2+ concentrations was determined. In plots of nerve-stimulated force against Mg^2+ concentration (FIG. 6E) the Kd,Mg^2+ was determined by fitting four parameter sigmoidal function to the data. Kd, Mg^2+ for the different compounds have been collected in Table 5.

The target in experiment [3] is rat soleus muscles. The experiment can be described thus: Tubocurarine concentration required to depress nerve-stimulated force by 50% (Kd,tub), combination with acetylcholinesterase inhibitors. Here is the method:
FIGS. 5A-5E. […] Muscles from 4-week-old rats were stimulated to contract by activating the motor nerve with short duration pulses in field stimulation. Muscles contracted every 10 min for 2 s in response to 30 Hz stimulation. Four different experimental conditions were used. […] After this pre-incubation, increasing concentrations of tubocurarine were added to the bath solutions with 60 min (corresponding to six contractions) between each increase in tubocurarine. […] FIG. 5C similar to FIG. 5A but this muscle had been pre-incubated with neostigmine. […] The force integral (AUC) was determined at each tubocurarine concentration. Such AUC determinations were plotted against tubocurarine concentration for each muscle.
CIC-1 is a novel target in treatment of neuromuscular complications and it was therefore explored whether this approach for symptomatic treatment could be used in combination with existing symptomatic treatment approaches. In myasthenia gravis, which in isolated muscles was mimicked by tubocurarine, the symptoms of muscle fatigue are most commonly treated with inhibitors of acethylcholineesterase of which neostigmine and pyridostigmine are examples. Also, neostigmine is the most commonly used reversal agent of neuromuscular blocked after surgery. […] FIG. 5A-D show recordings of nerve-stimulated force production at different tubocurarine concentrations when tested under the four experimental conditions. […] To quantify the effect of compounds on tubocurarine sensitivity, the force at the different tubocurarine concentrations was determined. In plots of nerve-stimulated force against tubocurarine concentration (FIG. 5E) Kd,tub was determined by fitting four parameter sigmoidal functions to the data and the Kd,tub for the different compounds have been collected in Table 4.

For experiment [4], the system named is isolated human muscles. The settings on record: 150 μM; elevated K+ and TTX.
Experiment [5] has as its system rat soleus muscles. It is filed as cell-based. The settings on record: 10 and 25 μM; 1 μM μ-conotoxin GiiiB.
In experiment [6] the target is T1, CIC-1 ion channels (Homo sapiens, UniProt P35523).
T1 construct: Isolated soleus muscles from adult rats or human abdominal muscles preparations were placed in a chamber; from tissue; host or cells: human abdominal muscle from patients
Nature of the experiment: Resting membrane conductance (Gm), three-electrode technique, human muscle: Kd for CIC-1 inhibition. Type of experiment: cell-based. As to conditions: concentration that reduced Gm by 50%.

Experiment [7] relates to isolated rat soleus muscles. Nature of the experiment: Recovery of nerve-stimulated force in isolated rat soleus muscles exposed to sub-maximal tubocurarine. The settings on record: Rattus norvegicus, 40 min; read-out: 50 μM % change after addition. The method, then: Experiments were performed using rat soleus muscles from either young (4-wk-old) or adult Wistar rats (12-14-week-old). Animal handling, killing and isolation of muscle is described elsewhere All experiments were performed using normal Krebs-Ringer bicarbonate solution (NKR). In solutions with elevated Mg^2+, MgCl2 was added to NKR-solution causing minor increases in osmolarity and ionic strength. In solutions with elevated K^+, 4 mM NaCl was replaced by 4 mM KCl in the NKR.
In all contraction experiments, isometric force production was determined and force produced during contractions was quantified by measuring the integral of the force response (AUC). Stimulation and force recordings have been described elsewhere. […] In these latter experiments, extracellular recordings of action potentials (M-waves) could be measured without temporal overlap with stimulation artefacts.
The aim was to find compounds that by inhibition of CIC-1 channels can recover nerve-stimulated force under conditions of fatigue including conditions where fatigue is caused by compromised neuromuscular transmission. Neuromuscular transmission dysfunction can develop because of both pre- and/or post-synaptic complications in connection with a disorder or as part of neuromuscular blockade during/after surgery. In the initial series of drug testing, experiments were performed with isolated muscles in the presence of sub-maximal ACh receptor antagonist tubocurarine. Since the inclusion of tubocurarine caused a partial loss of neuromuscular transmission this experiment mimics the conditions in myasthenia gravis and neuromuscular blockade. To mimic conditions with pre-synaptic complication (Lambert Eaton syndrome, motor neuron disorder, polyneuropathy) the intact nerve-muscle preparations were incubated at elevated extracellular Mg^2+, which is known to suppress release of ACh from nerve terminals of motor neurons.
To identify CIC-1 inhibitors that could be used for treatment of neuromuscular disorders we repeated the experiment shown in FIG. 2A but instead of adding 9-AC we added the compounds of interest in different concentrations within the range from 10 to 500 μM. […] For comparison with the muscle only exposed to tubocurarine (grey trace), the two traces have been overlaid. […] For comparison, muscles only exposed to tubocurarine have been included. The dotted line indicates the recovery of force with C8 when compared to the force production before its addition. This value was used in Table 1 for evaluation of the efficacy of the different compounds in recovering force.

The test system of experiment [8] is rats. The experiment can be described thus: Rotarod running performance in passive immunization (MAB35) rat model of myasthenia gravis. It is filed as in vivo. The method, then:
FIG. 10. […] Prior to I.P. injection of MAB35 the animals had been familiarized to the rotarod over three training sessions distributed over two days. […] After this treatment performance was monitored every second hour. *Indicates significant different as evaluated using student t-test.
as §1
In experiments with MAB35, animals were first familiarized with the rotarod over two consecutive days and then injected I.P. with MAB35. After injection, rotarod performance was then again monitored regularly over the consecutive two days. […] A considerable number of animals, however, became moribund failing to walk and they had altered ventilation (rapid) and pronounced ptosis. These animals were not included in experiments. […]

T1 sequence (P35523 whole entry): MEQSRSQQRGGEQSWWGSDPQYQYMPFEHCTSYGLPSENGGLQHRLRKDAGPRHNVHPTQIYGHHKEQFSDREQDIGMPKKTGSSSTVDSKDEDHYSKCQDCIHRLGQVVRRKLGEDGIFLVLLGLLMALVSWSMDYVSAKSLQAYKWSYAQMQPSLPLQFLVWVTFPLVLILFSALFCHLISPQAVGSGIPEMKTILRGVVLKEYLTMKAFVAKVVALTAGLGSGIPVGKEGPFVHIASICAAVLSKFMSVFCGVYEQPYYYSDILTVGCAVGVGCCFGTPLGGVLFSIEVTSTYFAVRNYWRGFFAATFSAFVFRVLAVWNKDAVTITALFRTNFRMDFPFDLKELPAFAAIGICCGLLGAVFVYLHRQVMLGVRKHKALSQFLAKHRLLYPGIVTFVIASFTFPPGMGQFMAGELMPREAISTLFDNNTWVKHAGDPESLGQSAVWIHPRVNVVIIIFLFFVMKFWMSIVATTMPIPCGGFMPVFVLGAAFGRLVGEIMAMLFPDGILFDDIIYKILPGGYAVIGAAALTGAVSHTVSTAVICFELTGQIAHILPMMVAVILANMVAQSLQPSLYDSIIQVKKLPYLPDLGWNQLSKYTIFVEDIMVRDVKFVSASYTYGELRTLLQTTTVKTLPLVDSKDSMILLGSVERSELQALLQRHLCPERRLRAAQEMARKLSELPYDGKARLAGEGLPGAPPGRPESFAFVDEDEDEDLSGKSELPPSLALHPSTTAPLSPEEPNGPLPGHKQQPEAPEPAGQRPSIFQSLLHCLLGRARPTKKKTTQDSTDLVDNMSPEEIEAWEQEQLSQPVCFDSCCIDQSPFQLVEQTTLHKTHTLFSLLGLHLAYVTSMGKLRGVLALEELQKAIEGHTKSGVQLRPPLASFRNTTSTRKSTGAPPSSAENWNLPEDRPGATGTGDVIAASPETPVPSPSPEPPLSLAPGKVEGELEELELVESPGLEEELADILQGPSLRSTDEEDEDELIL

In the case of `C[C@H](Oc1ccc(Br)cc1)C(=O)O` [Compound C8, (2S)-2-(4-bromophenoxy)propanoic acid], the “increase in distance run on the second day compared to the first day” value in experiment [1] is reported as “around 150%”. For the same compound, in experiment [2] (C8 and 3,4-diaminopyridine together), the “effect of combination on recovery of neuromuscular transmission” value is listed as “unexpected synergistic effect”. Besides, the Kd in experiment [2] (Compound (50 μM) + 3,4-AP (10 μM)) is 7800 ± 500 µM; in experiment [2] (Compound (50 μM) alone), 4000 ± 100 µM; in experiment [3] (Compound (50 μM) + Neostigmine (10 nM)), 0.218 ± 0.018 µM; in experiment [3] (Compound (50 μM) + Pyridostigmine (100 nM)), 0.186 ± 0.005 µM; in experiment [3] (Compound (50 μM) alone), 0.177 ± 0.007 µM; in experiment [6], 5.5 µM. The contractile force result in experiment [4] is on record as “markedly recovery”. In addition, the EPP amplitude result in experiment [5] is recorded as “significantly larger EPPs”. The activation at 50 µM in experiment [7] stood at 16%. For the same compound, the “rotarod performance after injection” value is given as “decline was reduced” in experiment [8] (20 mg/kg) and “clear recovery of performance” in experiment [8] (30 mg/kg).
